Measured values as given in publication PMC6155659, “Application of the Triazolization Reaction to Afford Dihydroartemisinin Derivatives with Anti-HIV Activity” (Molecules : A Journal of Synthetic Chemistry and Natural …, 2017).
Where two headings read alike, the source gives them in different places.

What was measured:
wild-type HIV-1 (IIIB) = test: Anti-HIV-1 (IIIB) activity in MT-4 cell cultures, MTT method; type: cell-based; settings: for anti-HIV-1 wild-type activity (in words): MT-4 cells, HIV-1 IIIB
Experimental: (§1) The newly synthesized dihydroartemisinin triazole derivatives were evaluated for their inhibitory effects (IC50) on the replication of wild-type HIV-1 (IIIB) and HIV-2 (ROD) in MT-4 cell cultures, in parallel with their cytotoxicities (CC50) using the 3-(4,5-dimethylthiazol-2-yl)-2,5-diphenyl tetrazolium bromide (MTT) method. A series of nucleoside reverse transcriptase inhibitors (NRTIs)—i.e., azidothymidine (AZT), lamivudine (3TC) and didanosine (DDI)—and non-nucleoside reverse transcriptase inhibitors (NNRTIs)—i.e., nevirapine (NVP), efavirenz (EFV), and etravirine (ETR)—were included as reference compounds. The biological results are represented as IC50 and CC50 values in Table 3.

[1] = test system: double reverse transcriptase mutant (K103N; Y181C) HIV-1 strain (RES056); test: Activity against double reverse transcriptase mutant HIV-1 strain RES056 in MT-4 cell cultures, MTT method; type: cell-based; settings: for IC50: Human immunodeficiency virus 1, MT4, read-out: IC50 HIV-1 Strain RES056; for inhibitory activity against RES056 (in words): K103N, Y181C double RT mutant HIV-1, MT-4 cells
Experimental: as §1
Most of the new triazole analogues of dihydroartemisinin are completely devoid of anti-HIV activity. […] The active molecules were also evaluated for their inhibitory activity against a double reverse transcriptase mutant (K103N; Y181C) HIV-1 strain (RES056). […] Therefore, the active β-tetralone derivatives most probably act via an NNRTI-type mode of action.

HIV-2 (ROD) = test: Anti-HIV-2 (ROD) activity in MT-4 cell cultures, MTT method; type: cell-based
Experimental: as §1

[2] = Cytotoxicity in mock-infected MT-4 cell cultures, MTT method; type: cell-based; settings: human
Experimental: as §1

MT-4 cells = test: as above; type: cell-based; settings: cell culture
Experimental: as §1

[3] = Human immunodeficiency virus 1, IIIB, MT4, 50% protection of MT-4 cell cultures against virus-induced cytotoxicity, MTT method, read-out: IC50 HIV-1 Strain IIIB
[4] = Human immunodeficiency virus 2, MT4, 50% protection of MT-4 cell cultures against virus-induced cytotoxicity, MTT method, read-out: IC50 HIV-2 Strain ROD
[5] = mock-infected MT-4 cells, concentration reducing viability of mock-infected MT-4 cell cultures by 50%, MTT method, read-out: CC50
[6] = Human immunodeficiency virus 2, MT4, read-out: IC50 HIV-2 Strain ROD
[7] = concentration reducing viability of mock-infected MT-4 cell cultures by 50%, MTT method, read-out: CC50

| melting point [°C] | Structure (SMILES) | IC50 (wild-type HIV-1 (IIIB); [3]) [µM] | IC50 [1] [µM] | IC50 (HIV-2 (ROD); [4]) [µM] | anti-HIV-1 wild-type activity (in words) (wild-type HIV-1 (IIIB)) | CC50 [2, 5] [µM] | inhibitory activity against RES056 (in words) [1] | IC50 (HIV-2 (ROD); [6]) [µM] | further results |
| --- | --- | --- | --- | --- | --- | --- | --- | --- | --- |
| 80 to 81 | COc1cc(Cn2nnc3c2CCC(C(=O)O[C@@H]2O[C@@H]4O[C@@]5(C)CCC6[C@H](C)CC[C@@H]([C@H]2C)[C@]64OO5)C3)cc(OC)c1OC (stereo partly drawn) |  |  |  |  |  |  |  |  |
| 105 to 106 | C[C@H]1[C@H](OCCn2nncc2-c2ccc(Br)c(Br)c2)O[C@@H]2O[C@@]3(C)CCC4[C@H](C)CC[C@@H]1[C@]42OO3 (stereo partly drawn) |  |  |  |  |  |  |  |  |
| 96 to 97 | C[C@H]1[C@H](OCCn2nnc3c2C[C@@H]2CC[C@@H]4[C@H](CC[C@]5(C)[C@@H](O)CC[C@@H]45)[C@@]2(C)C3)O[C@@H]2O[C@@]3(C)CCC4[C@H](C)CC[C@@H]1[C@]42OO3 (stereo partly drawn) |  |  |  |  |  |  |  |  |
|  | Cc1cn([C@H]2C[C@H](N=[N+]=[N-])[C@@H](CO)O2)c(=O)[nH]c1=O [Azidothymidine, azidothymidine, reference compound] | 0.0064 | 0.0071 | 0.0082 |  |  |  |  | CC50 [2]: > 7.5 µM |
|  | C[C@H]1[C@H](OCCn2nnc3c2-c2ccccc2CC3)O[C@@H]2O[C@@]3(C)CCC4[C@H](C)CC[C@@H]1[C@]42OO3 (stereo partly drawn) [Compound 8a, 1-(2-(((3R,6R,8aS,9R,10R,12R,12aR)-3,6,9-Trimethyldecahydro-12H-3,12-epoxy[1,2]dioxepino[4,3-i]isochromen-10-yl)oxy)ethyl)-4,5-dihydro-1H-naphtho[1,2-d][1,2,3]triazole] | > 10.3 |  | > 10.3 | did not show any activity | > 10.3 |  |  |  |
|  | COc1cc2c(cc1OC)-c1nnn(CCO[C@@H]3O[C@@H]4O[C@@]5(C)CCC6[C@H](C)CC[C@@H]([C@H]3C)[C@]64OO5)c1CC2 (stereo partly drawn) [Compound 8c, 7,8-Dimethoxy-3-(2-(((3R,6R,8aS,9R,10R,12R,12aR)-3,6,9-trimethyldecahydro-12H-3,12-epoxy[1,2]dioxepino[4,3-i]isochromen-10-yl)oxy)ethyl)-4,5-dihydro-3H-naphtho[1,2-d][1,2,3]triazole] | 4.06 | > 21.2 |  | inhibitory to HIV-1 replication | 21.2 | completely lose their inhibitory activity | > 21.2 | cytotoxicity (in words) (MT-4 cells): limited cytotoxicity |
|  | COc1ccc2c(c1)-c1nnn(CCO[C@@H]3O[C@@H]4O[C@@]5(C)CCC6[C@H](C)CC[C@@H]([C@H]3C)[C@]64OO5)c1CC2 (stereo partly drawn) [Compound 8e, 8-Methoxy-3-(2-(((3R,6R,8aS,9R,10R,12R,12aR)-3,6,9-trimethyldecahydro-12H-3,12-epoxy[1,2]dioxepino[4,3-i]isochromen-10-yl)oxy)ethyl)-4,5-dihydro-3H-naphtho[1,2-d][1,2,3]triazole] | 5.18 | > 14.9 |  | inhibitory to HIV-1 replication | 14.9 | completely lose their inhibitory activity | > 14.9 | cytotoxicity (in words) (MT-4 cells): limited cytotoxicity |
|  | O=c1[nH]cnc2c1ncn2[C@H]1CC[C@@H](CO)O1 [Didanosine, didanosine, reference compound] | 76 |  | 82.1 |  |  |  |  | CC50 [2]: > 212 µM |
|  | O=C1Nc2ccc(Cl)cc2[C@@](C#CC2CC2)(C(F)(F)F)O1 [Efavirenz, efavirenz] | 0.0024 | 0.18 | > 6.3 |  |  | only slightly affected |  | CC50 [2, 7]: > 6.3 µM |
|  | Cc1cc(C#N)cc(C)c1Oc1nc(Nc2ccc(C#N)cc2)nc(N)c1Br [Etravirine, etravirine] |  | 0.045 |  |  | 2.29 | only slightly affected | > 2.29 | IC50 (wild-type HIV-1 (IIIB); Human immunodeficiency virus 1, MT4, read-out: IC50 HIV-1 Strain IIIB): 0.0034 µM |
|  | Nc1ccn([C@@H]2CS[C@H](CO)O2)c(=O)n1 [Lamivudine, lamivudine, reference compound] | 2.53 |  | 9.9 |  |  |  |  | CC50 [2]: > 87.2 µM |
|  | Cc1ccnc2c1NC(=O)c1cccnc1N2C1CC1 [Nevirapine, nevirapine] | 0.075 | > 15 | > 15 |  |  | completely lose their inhibitory activity |  | CC50 [2, 7]: > 15 µM |

| Structure (SMILES) | melting point [°C] | IC50 (wild-type HIV-1 (IIIB); [3]) [µM] | IC50 [1] [µM] | IC50 (HIV-2 (ROD); [4]) [µM] | anti-HIV-1 wild-type activity (in words) (wild-type HIV-1 (IIIB)) | CC50 [2, 5] [µM] | inhibitory activity against RES056 (in words) [1] | IC50 (HIV-2 (ROD); [6]) [µM] | further results |
| --- | --- | --- | --- | --- | --- | --- | --- | --- | --- |
| C[C@H]1[C@H](OCCn2nnc3c2CCc2ccccc2-3)O[C@@H]2O[C@@]3(C)CCC4[C@H](C)CC[C@@H]1[C@]42OO3 (stereo partly drawn) [Compound 8b, 3-(2-(((3R,6R,8aS,9R,10R,12R,12aR)-3,6,9-Trimethyldecahydro-12H-3,12-epoxy[1,2]dioxepino[4,3-i]isochromen-10-yl)oxy)ethyl)-4,5-dihydro-3H-naphtho[1,2-d][1,2,3]triazole] | 104 to 105 | 2.78 | > 31.5 |  | inhibitory to HIV-1 replication | 31.5 | completely lose their inhibitory activity | > 31.5 | cytotoxicity (in words) (MT-4 cells): limited cytotoxicity |
